Consider nine molecules from paper PMC6345774, “Kinetic and thermodynamic effects of phosphorylation on p53 binding to MDM2” (Scientific Reports, 2019).

In data set [1] the target is T1, human MDM2 (residues 2–125) (Homo sapiens, UniProt Q00987).
T1 construct: human MDM2 (residues 2–125); made in house; host or cells: E. coli BL21 (DE3)
Briefly: Isothermal titration calorimetry of p53-peptide binding to MDM2. The following applies: ITC, 15 °C, 50 mM Tris-HCl pH 8.0, 250 mM NaCl, 0.5 mM TCEP; for Kd / ΔH of binding: peptide titrated into MDM2; for Kd: read-out: Log KA (converted); for ΔH of binding: repeated twice. How it is done: Protein concentration was determined from the absorbance of its seven Tyr residues.
Peptide binding to MDM2 was measured by using an Auto-iTC200 (Malvern Instruments, Malvern UK), as described[24],[37]. Data acquisition was carried out with a reference power of 10 µcal/s, initial delay of 60 s, spacing between injections of 150 s. In a typical ITC experiment, the p53 peptide was loaded into a 40 μl syringe and the protein was placed into the sample cell. The sequence of injections consisted of one 0.5 μl injection followed by 19 injections of 2 μl each. Control experiments loading peptide into buffer solution were also carried out for each peptide. Experiments were performed with freshly prepared protein solutions, at 15 °C in the same buffer used in fluorescence experiments. ITC experiments were performed at 15 °C rather than 25 °C to avoid aggregation of MDM2.
Each peak was integrated using NITPIC software. The areas of the peaks are related to the heat exchanged upon binding and/or dilution. This heat was corrected of the heat of dilution (i.e., the average heat of the injections after the equilibrium has reached the saturation). Titration with each peptide was repeated twice.
Background: In ITC the heat of successive injections is recorded.

Data set [2] has as its target T1, human MDM2 (residues 2–125). In words: Stopped-flow fluorescence kinetics of p53-peptide binding to MDM2. The following applies: stopped-flow Trp fluorescence, 15 °C, 50 mM Tris-HCl pH 8.0, 250 mM NaCl, 0.5 mM TCEP, peptide 0.125 μM, ± fitting error; for kon: MDM2 1–3 μM, pseudo-first order, slope, read-out: kon 10^6; for koff: y-axis intercept of pseudo-first-order plot. The method, then: (§1) Expression and purification of human MDM2 (residues 2–125) was carried out as described[23] in BL21 (DE3) cells. […] Protein concentration was determined from the absorbance of its seven Tyr residues.
The kinetics of the MDM2/p53-peptide interaction was measured at 15 °C using an Applied Photophysics stopped-flow fluorimeter in the same buffer as that used in the equilibrium fluorescence experiments. The experimental procedure has been described previously. Association kinetics was measured under pseudo-first order conditions, by keeping the MDM2 concentration in excess of that of the peptide. […] Excitation wavelength was 280 nm with a cut-off filter of 315 nm on the emission side. The slit widths were 10 nm for excitation and emission.
At each MDM2 concentration a minimum of six traces were acquired; and the fitting in all cases for all peptides was carried out with the averaging of at least four traces. The averaged trace was always fitted to a single exponential function, which yielded, kobs. Fitting to a single exponential curve was carried out by using Kaleidagraph (Synergy Software); reported errors in kobs are from the exponential fitting. The dissociation (koff) and association (kon) rate constants were obtained from the straight line: kobs=kon×[MDM2]+koff.
Errors in both rates were from the linear fitting; the errors were always larger for koff due to the extrapolation to the y-axis intercept.

Data set [3] can be described thus: TFE titrations monitored by CD (helical population). The following applies: 5 °C, 50 mM phosphate pH 6.8, peptide 40 μM; for [TFE]1/2 (midpoint of TFE titration) / m (m-value of TFE titration): CD at 222 nm, two-state fit, ± fitting error; for % Helix in water (from ΔG in TFE titrations): from ΔG = [TFE]1/2 × m, for 1% values the error was 10%. It is filed as physicochemical. The method, then:
Unlike the above programs, which make assumptions about how the ellipticity signal relates to secondary structure content, a TFE titration allows the determination of helical content derived from the free-energy change for the equilibrium between folded (in TFE) and unfolded peptide, without any such assumptions.
(§2) For the TFE titrations, a peptide concentration of 40 μM was used. The samples were prepared the day before and left overnight at 5 °C to reach equilibrium. The experiments in aqueous solution were acquired at 5 °C, in 50 mM sodium phosphate buffer, pH 6.8. Raw ellipticity was converted to molar ellipiticity, [Θ], from which the percentage of helical populations was determined. Co-solvent concentrations were indicated in percentage of volume. […] Fitting of the titration curves, obtained by observation of the molar ellipticity at 222 nm as the TFE concentration was increased, was carried out with Kaleidagraph (Synergy software).

Data set [4] in a line: Far-UV CD of isolated peptides in aqueous solution (helicity). The settings on record: 5 °C, 50 mM phosphate pH 6.8; for molar ellipticity at 222 nm, [Θ]222: far-UV CD; for % Helix in water ([Θ]222): from molar ellipticity at 222 nm assuming 100% helix = −31500 deg cm^2 dmol^−1. Format: physicochemical. The method, then:
Spectra were acquired on a Jasco J815 spectropolarimeter (Jasco, Japan) interfaced with a Peltier unit. The instrument was periodically calibrated with (+) 10-camphorsulphonic acid. Far-UV measurements (in aqueous or TFE solutions) were performed in 0.1-cm-pathlength quartz cells (Hellma), with a response time of 2 s, a band width of 1 nm, data were collected every 0.2 nm, and a scan velocity of 50 nm/min (or 20 nm/min). […] In all peptides, two concentrations (10 μM and 70 μM) in aqueous solutions (50 mM sodium phosphate buffer, pH 6.8 […]) were used to determine whether either the shapes or the intensities of the spectra were concentration-dependent. […] In all cases (aqueous solution or TFE titrations), the corresponding blank solutions (containing only buffer, or buffer and the corresponding amount of TFE) were subtracted from the spectra.
as §2

Data set [5] has as its target T1, human MDM2 (residues 2–125). In words: Equilibrium fluorescence titration of p53-peptides and MDM2. It is filed as binding. The settings on record: fluorescence at 315 nm, excitation 280 nm; MDM2 4 μM, peptide 0–10 μM; 15 °C, pH 8.0 Tris-HCl, 250 mM NaCl, 0.5 mM TCEP; overnight equilibration; titration repeated twice; read-out: Kd from fluorescence titrations. How it is done:
as §1

The target of data set [6] is T2, human MDM2 (residues 2–125) (human, UniProt Q00987 2-125).
T2 construct: MDM2 (murine double minute 2), human, N-terminal domain, residues 2-125; no tag is named; also called N-terminal domain of MDM2
In words: ITC; p53 peptide in the syringe titrated into MDM2 in the cell; Auto-iTC200; 15 °C; 50 mM Tris-HCl pH 8.0, 250 mM NaCl, 0.5 mM TCEP. The following applies: both partners purified.

The target in data set [7] is T2, human MDM2 (residues 2–125). Briefly: other fluorescence titration; peptide 0–10 μM added to 4 μM MDM2; fluorescence at 315 nm after excitation at 280 nm; 15 °C; 50 mM Tris-HCl pH 8.0, 250 mM NaCl, 0.5 mM TCEP; samples left overnight at 5 °C. The settings on record: both partners purified.
The target is the same in data set [8]. In words: stopped-flow fluorescence; pseudo-first order, peptide 0.125 μM final, MDM2 in excess (typically 1 μM to 3 μM); Trp23 fluorescence, excitation 280 nm, 315 nm cut-off; 15 °C; 50 mM Tris-HCl pH 8.0, 250 mM NaCl, 0.5 mM TCEP; Kd as koff/kon assuming a two-state reaction. The following applies: both partners purified.

T1 sequence (Q00987 2-125): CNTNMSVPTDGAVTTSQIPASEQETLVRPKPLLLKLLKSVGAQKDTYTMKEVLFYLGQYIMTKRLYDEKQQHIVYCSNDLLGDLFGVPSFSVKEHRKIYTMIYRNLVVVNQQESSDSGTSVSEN
T2 sequence (Q00987 2-125): as above

Turning to `CC(=O)N[C@@H](CCC(=O)O)C(=O)N[C@@H](CCC(=O)O)C(=O)N[C@@H](Cc1ccccc1)C(=O)N[C@@H](CO)C(=O)N[C@@H](CC(=O)O)C(=O)N[C@@H](CC(C)C)C(=O)N[C@@H](Cc1c[nH]c2ccccc12)C(=O)N[C@@H](CCCCN)C(=O)N[C@@H](CC(C)C)C(=O)N[C@@H](CC(C)C)C(=O)N1CCC[C@H]1C(=O)N[C@@H](CCC(=O)O)C(=O)N[C@@H](CC(N)=O)C(N)=O` [P53-E18], in data set [1], the TΔS of binding was -0.26 kcal/mol, the Kd was 7.08 µM and the ΔH of binding was -7.02 kcal/mol. In data set [2], the on-rate (kon) came to 3.8e+06 ± 700000 M⁻¹ s⁻¹ and the dissociation rate constant (koff) amounted to 16 ± 2 s⁻¹. Besides, in data set [3], the “[TFE]1/2 (midpoint of TFE titration)” value was 14 ± 5 % (vol:vol), the “m (m-value of TFE titration)” value is 103 ± 42 cal mol^−1(%)^−1 and the “% Helix in water (from ΔG in TFE titrations)” value turned out to be 7 ± 1%. In data set [4], the “molar ellipticity at 222 nm, [Θ]222” value is −2380 deg cm^2 dmol^−1 and the “% Helix in water ([Θ]222)” value turned out to be 7.5%.
With `CC(=O)N[C@@H](CCC(=O)O)C(=O)N[C@H](C(=O)N[C@@H](Cc1ccccc1)C(=O)N[C@@H](CCC(=O)O)C(=O)N[C@@H](CC(=O)O)C(=O)N[C@@H](CC(C)C)C(=O)N[C@@H](Cc1c[nH]c2ccccc12)C(=O)N[C@@H](CCCCN)C(=O)N[C@@H](CC(C)C)C(=O)N[C@@H](CC(C)C)C(=O)N1CCC[C@H]1C(=O)N[C@@H](CCC(=O)O)C(=O)N[C@@H](CC(N)=O)C(N)=O)[C@@H](C)O` [P53-E20], in data set [2], the kon worked out at 9e+06 ± 2e+06 M⁻¹ s⁻¹ and the off-rate (koff) is 8 ± 5 s⁻¹. The Kd in data set [5] came to 700 ± 100 nM. In addition, in data set [3], the “[TFE]1/2 (midpoint of TFE titration)” value is recorded as 25 ± 2 % (vol:vol), the “m (m-value of TFE titration)” value was 231 ± 141 cal mol^−1(%)^−1 and the “% Helix in water (from ΔG in TFE titrations)” value worked out at 1%. Besides, in data set [4], the “molar ellipticity at 222 nm, [Θ]222” value is given as −2911 deg cm^2 dmol^−1 and the “% Helix in water ([Θ]222)” value is listed as 9.2%.
In data set [1], Ac-EEFDDLWKLLPEN-NH2 [P53-E18-D20] gave a TΔS of binding of -2.64 kcal/mol and a ΔH of binding of -8.80 kcal/mol. In data set [2], the kon worked out at 4e+06 ± 2e+06 M⁻¹ s⁻¹ and the koff came to 18 ± 6 s⁻¹. In data set [3], the “[TFE]1/2 (midpoint of TFE titration)” value is given as 15 ± 1 % (vol:vol), the “m (m-value of TFE titration)” value is recorded as 135 ± 18 cal mol^−1(%)^−1 and the “% Helix in water (from ΔG in TFE titrations)” value is recorded as 3 ± 1%. For the same molecule, in data set [4], the “molar ellipticity at 222 nm, [Θ]222” value is listed as −2100 deg cm^2 dmol^−1 and the “% Helix in water ([Θ]222)” value is given as 6.6%.
For Ac-EEFEDLWKLLPEN-NH2 [P53-E18-E20], in data set [1], the TΔS of binding is -2.16 kcal/mol, the Kd was 5.01 µM and the ΔH of binding is -9.12 kcal/mol. Further, in data set [2], the on-rate (kon) worked out at 2.7e+06 ± 900000 M⁻¹ s⁻¹ and the koff amounted to 17 ± 2 s⁻¹. Also, in data set [3], the “[TFE]1/2 (midpoint of TFE titration)” value is listed as 24.5 ± 0.9 % (vol:vol), the “m (m-value of TFE titration)” value is recorded as 420 ± 390 cal mol^−1(%)^−1 and the “% Helix in water (from ΔG in TFE titrations)” value amounted to 1%. In addition, in data set [4], the “molar ellipticity at 222 nm, [Θ]222” value is recorded as −2757 deg cm^2 dmol^−1 and the “% Helix in water ([Θ]222)” value is 8.7%.
As for Ac-ETFDDLWKLLPEN-NH2 [Ac-ETFdDLWKLLPEN-NH2 (P53-D20)], in data set [6], the Kd is 5.7 µM, the “Log KA” value stood at 5.24 and the dH is -10.2 kcal/mol. In data set [7], this molecule gave a Kd of 1500 ± 400 nM.
Ac-EEFEDLWKLLPEN-NH2 [Ac-EeFeDLWKLLPEN-NH2 (P53-E18-E20)] had a Kd in data set [8] of 6 ± 2 µM. Also, in data set [6], the Kd came out at 5 µM, the “Log KA” value was 5.3 and the dH was -9.12 kcal/mol.
For the molecule Ac-ETFEDLWKLLPEN-NH2 [Ac-ETFeDLWKLLPEN-NH2 (P53-E20)], the Kd in data set [8] came to 0.9 ± 0.6 µM.

B1: Ac-EeFdDLWKLLPEN-NH2 (P53-E18-D20) (peptide)
peptide: Ac-EEFDDLWKLLPEN-NH2
notes: also called double phosphomimetic mutant
Regarding B1, in data set [8], the Kd came to 4 ± 3 µM. In data set [6], the Kd turned out to be 20.4 µM, the “Log KA” value was determined as 4.69 and the dH is -8.8 kcal/mol. Further, the Kd in data set [7] came out at 8300 ± 4900 nM.
The corresponding values for Ac-EEFSDLWKLLPEN-NH2 [Ac-EeFSDLWKLLPEN-NH2 (P53-E18)] are 4.2 ± 0.9 µM, 7.1 µM, 5.15, -7.02 kcal/mol and 2300 ± 600 nM.

In general, kon refers to the second-order rate constant of association. By koff is commonly meant the rate constant with which the complex falls apart.
